Like-named read-outs stand apart in the source and are kept apart here.
How the values were obtained:
Test in all cases: biochemical
GAK = target: T1, GAK (Homo sapiens, UniProt O14976)
T1 sequence (O14976 1-1311): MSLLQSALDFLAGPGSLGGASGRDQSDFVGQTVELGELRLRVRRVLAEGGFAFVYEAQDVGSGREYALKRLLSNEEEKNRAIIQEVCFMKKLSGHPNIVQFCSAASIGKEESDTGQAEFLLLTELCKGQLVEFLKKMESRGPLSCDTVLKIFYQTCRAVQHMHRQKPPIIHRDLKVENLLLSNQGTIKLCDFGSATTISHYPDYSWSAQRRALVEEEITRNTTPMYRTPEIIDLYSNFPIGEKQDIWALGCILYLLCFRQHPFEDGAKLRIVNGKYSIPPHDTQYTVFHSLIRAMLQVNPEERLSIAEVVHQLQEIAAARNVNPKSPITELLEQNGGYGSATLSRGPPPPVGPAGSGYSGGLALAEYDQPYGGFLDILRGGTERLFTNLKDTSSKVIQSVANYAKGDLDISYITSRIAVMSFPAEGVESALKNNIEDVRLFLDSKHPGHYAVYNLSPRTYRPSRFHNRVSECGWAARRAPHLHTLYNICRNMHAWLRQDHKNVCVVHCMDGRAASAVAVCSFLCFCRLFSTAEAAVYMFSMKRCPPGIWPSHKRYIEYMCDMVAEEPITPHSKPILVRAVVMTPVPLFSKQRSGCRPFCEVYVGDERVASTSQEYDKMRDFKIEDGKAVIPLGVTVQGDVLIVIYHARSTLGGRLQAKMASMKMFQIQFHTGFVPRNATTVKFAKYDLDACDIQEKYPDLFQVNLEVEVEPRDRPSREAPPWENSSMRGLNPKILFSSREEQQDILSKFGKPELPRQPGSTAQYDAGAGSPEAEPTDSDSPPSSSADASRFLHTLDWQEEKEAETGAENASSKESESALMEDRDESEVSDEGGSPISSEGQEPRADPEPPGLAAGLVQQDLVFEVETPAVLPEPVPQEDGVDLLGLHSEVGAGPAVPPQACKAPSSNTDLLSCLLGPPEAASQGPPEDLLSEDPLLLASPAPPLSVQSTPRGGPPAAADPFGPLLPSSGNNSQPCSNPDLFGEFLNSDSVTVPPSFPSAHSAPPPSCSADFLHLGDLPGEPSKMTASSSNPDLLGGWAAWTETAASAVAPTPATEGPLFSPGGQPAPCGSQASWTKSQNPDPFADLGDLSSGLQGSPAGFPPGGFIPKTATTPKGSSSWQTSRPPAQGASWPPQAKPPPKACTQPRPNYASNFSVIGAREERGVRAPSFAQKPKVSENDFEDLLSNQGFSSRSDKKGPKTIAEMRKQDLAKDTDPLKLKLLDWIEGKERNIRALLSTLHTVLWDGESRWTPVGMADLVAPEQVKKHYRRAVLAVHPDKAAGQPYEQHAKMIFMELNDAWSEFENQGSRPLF

PCTAIRE1 = PCTAIRE1 (Homo sapiens, UniProt Q00536)
Sequence of PCTAIRE1 (Q00536 whole entry): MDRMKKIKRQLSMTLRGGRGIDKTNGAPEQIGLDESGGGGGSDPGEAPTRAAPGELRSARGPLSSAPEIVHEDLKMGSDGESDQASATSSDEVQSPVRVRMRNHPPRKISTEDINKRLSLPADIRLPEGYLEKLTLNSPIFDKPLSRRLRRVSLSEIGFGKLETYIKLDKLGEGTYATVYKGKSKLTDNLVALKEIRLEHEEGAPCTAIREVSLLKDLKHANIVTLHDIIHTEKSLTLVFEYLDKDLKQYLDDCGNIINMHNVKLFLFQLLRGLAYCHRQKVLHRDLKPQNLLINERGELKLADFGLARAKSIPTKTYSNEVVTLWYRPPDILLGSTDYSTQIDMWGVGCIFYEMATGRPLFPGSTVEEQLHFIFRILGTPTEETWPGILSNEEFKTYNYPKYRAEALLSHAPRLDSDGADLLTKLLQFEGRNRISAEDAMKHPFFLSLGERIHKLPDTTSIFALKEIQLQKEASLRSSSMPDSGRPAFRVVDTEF

DYRK1A = DYRK1A (Homo sapiens, UniProt Q13627)
MYT1 = target: T2, MYT1 (Homo sapiens, UniProt Q99640)
T2 sequence (Q99640 1-499): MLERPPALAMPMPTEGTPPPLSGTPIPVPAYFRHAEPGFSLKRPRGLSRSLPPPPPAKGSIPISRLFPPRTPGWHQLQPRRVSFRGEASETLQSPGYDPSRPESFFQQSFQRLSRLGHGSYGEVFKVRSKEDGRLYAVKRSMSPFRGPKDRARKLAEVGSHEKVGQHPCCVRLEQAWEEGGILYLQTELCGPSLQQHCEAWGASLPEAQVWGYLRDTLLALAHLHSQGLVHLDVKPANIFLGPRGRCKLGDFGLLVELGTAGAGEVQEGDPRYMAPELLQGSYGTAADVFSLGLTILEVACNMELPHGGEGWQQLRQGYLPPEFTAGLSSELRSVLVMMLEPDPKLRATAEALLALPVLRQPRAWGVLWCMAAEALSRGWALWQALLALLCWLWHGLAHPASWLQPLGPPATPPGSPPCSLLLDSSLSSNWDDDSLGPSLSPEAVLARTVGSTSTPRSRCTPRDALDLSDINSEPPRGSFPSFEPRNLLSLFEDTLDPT

CHK2 = CHK2 (Homo sapiens, UniProt O96017)
Sequence of CHK2 (O96017 whole entry): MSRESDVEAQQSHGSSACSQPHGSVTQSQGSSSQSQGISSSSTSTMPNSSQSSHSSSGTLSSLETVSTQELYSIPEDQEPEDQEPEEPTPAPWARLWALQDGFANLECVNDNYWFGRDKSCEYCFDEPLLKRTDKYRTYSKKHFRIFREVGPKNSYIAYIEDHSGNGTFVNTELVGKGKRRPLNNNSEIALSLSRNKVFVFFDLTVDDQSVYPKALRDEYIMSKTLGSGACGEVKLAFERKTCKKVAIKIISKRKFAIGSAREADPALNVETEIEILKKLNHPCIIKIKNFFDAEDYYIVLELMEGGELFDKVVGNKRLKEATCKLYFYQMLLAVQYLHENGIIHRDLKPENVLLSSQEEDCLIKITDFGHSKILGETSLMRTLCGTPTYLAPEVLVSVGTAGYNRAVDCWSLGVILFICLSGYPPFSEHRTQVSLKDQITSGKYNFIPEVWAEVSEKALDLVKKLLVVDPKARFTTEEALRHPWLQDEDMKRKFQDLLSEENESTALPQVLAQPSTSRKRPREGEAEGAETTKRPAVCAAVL

DMPK1 = target: T3, DMPK1 (Homo sapiens, UniProt Q09013)
T3 sequence (Q09013 1-629): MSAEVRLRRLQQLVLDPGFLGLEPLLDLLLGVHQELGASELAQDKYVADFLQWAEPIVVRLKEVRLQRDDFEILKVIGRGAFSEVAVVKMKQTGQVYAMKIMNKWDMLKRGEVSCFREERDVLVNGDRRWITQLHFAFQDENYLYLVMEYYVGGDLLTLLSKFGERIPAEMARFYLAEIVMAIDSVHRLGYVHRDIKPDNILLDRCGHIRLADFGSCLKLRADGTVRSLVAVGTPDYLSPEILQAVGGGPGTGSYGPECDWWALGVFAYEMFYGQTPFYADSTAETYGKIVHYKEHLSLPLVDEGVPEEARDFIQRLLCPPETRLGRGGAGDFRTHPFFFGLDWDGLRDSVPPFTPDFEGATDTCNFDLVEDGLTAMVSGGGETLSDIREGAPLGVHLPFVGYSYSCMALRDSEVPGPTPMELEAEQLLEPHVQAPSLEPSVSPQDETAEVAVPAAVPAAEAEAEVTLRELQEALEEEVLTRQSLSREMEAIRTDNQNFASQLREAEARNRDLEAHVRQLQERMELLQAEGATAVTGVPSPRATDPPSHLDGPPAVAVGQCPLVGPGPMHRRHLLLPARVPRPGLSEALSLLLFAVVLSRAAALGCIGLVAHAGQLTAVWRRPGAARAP

CNc1ncc2cc(-c3ccc(-c4cccc(C)n4)cc3Cl)c(=O)n(CC3OCC(N)CO3)c2n1 (stereo not drawn) [compound 2, G-5555]
dTm G-5555 (2) (GAK; 10 µM, binder): 6.1 °C | dTm G-5555 (2) (PCTAIRE1; 10 µM, binder): 1.3 °C | dTm G-5555 (2) (DYRK1A; 10 µM, binder): -1.0 °C | dTm G-5555 (2) (MYT1; 10 µM, binder): -2.1 °C | dTm G-5555 (2) (CHK2; 10 µM, binder): 0.9 °C | dTm G-5555 (2) (DMPK1; 10 µM, binder): -0.3 °C

CNc1ncc2cc(-c3ccccc3Cl)c(=O)n(CCCCN)c2n1 [compound 4, 8-(4-Aminobutyl)-6-(2-chlorophenyl)-2-(methylamino)pyrido[2,3-d]pyrimidin-7(8H)-one]
ΔTm at 10 µM (GAK; read-out: dTm MR21 (4)): 6.6 °C | ΔTm at 10 µM (PCTAIRE1; read-out: dTm MR21 (4)): 1.8 °C | ΔTm at 10 µM (DYRK1A; read-out: dTm MR21 (4)): 1.4 °C | ΔTm at 10 µM (MYT1; read-out: dTm MR21 (4)): -2.3 °C | ΔTm at 10 µM (CHK2; read-out: dTm MR21 (4)): 0.9 °C | ΔTm at 10 µM (DMPK1; read-out: dTm MR21 (4)): 2.8 °C

CNc1ncc2cc(-c3cc(F)ccc3F)c(=O)n(CCCCN)c2n1 [compound 5, 8-(4-Aminobutyl)-6-(2,5-difluorophenyl)-2-(methylamino)pyrido[2,3-d]pyrimidin-7(8H)-one]
ΔTm at 10 µM (GAK; read-out: dTm MR22 (5)): 5.4 °C | ΔTm at 10 µM (PCTAIRE1; read-out: dTm MR22 (5)): 0.3 °C | ΔTm at 10 µM (DYRK1A; read-out: dTm MR22 (5)): 0 °C | ΔTm at 10 µM (MYT1; read-out: dTm MR22 (5)): -2.1 °C | ΔTm at 10 µM (CHK2; read-out: dTm MR22 (5)): 0.4 °C | ΔTm at 10 µM (DMPK1; read-out: dTm MR22 (5)): 0.9 °C

CNc1ncc2cc(-c3cc(Br)ccc3Cl)c(=O)n(CCCCN)c2n1 [compound 6, 8-(4-Aminobutyl)-6-(5-bromo-2-chlorophenyl)-2-(methylamino)pyrido[2,3-d]pyrimidin-7(8H)-one]
ΔTm at 10 µM (GAK; read-out: dTm 6): 4.1 °C | ΔTm at 10 µM (PCTAIRE1; read-out: dTm 6): 1.1 °C | ΔTm at 10 µM (DYRK1A; read-out: dTm 6): 0 °C | ΔTm at 10 µM (MYT1; read-out: dTm 6): -1.4 °C | ΔTm at 10 µM (CHK2; read-out: dTm 6): 0.4 °C | ΔTm at 10 µM (DMPK1; read-out: dTm 6): 1.2 °C

CNc1ncc2cc(-c3cc(Br)ccc3Cl)c(=O)n(C[C@H]3OC[C@H](N)CO3)c2n1 [compound 7, 8-(((2r,5r)-5-Amino-1,3-dioxan-2-yl)methyl)-6-(5-bromo-2-chlorophenyl)-2-(methylamino)pyrido[2,3-d]pyrimidin-7(8H)-one]
ΔTm at 10 µM (GAK; read-out: dTm 7): 2.6 °C | ΔTm at 10 µM (PCTAIRE1; read-out: dTm 7): 0.1 °C | ΔTm at 10 µM (DYRK1A; read-out: dTm 7): -0.6 °C | ΔTm at 10 µM (MYT1; read-out: dTm 7): 0.1 °C | ΔTm at 10 µM (CHK2; read-out: dTm 7): 0.2 °C | ΔTm at 10 µM (DMPK1; read-out: dTm 7): -0.1 °C
